Results taken from US8410153B2, “Naphthalene isoxazoline invertebrate pest control agents” (E.I. du Pont de Nemours and Company, priority 2007, dated 2013).

Key:
Assay type in all cases: in vivo
[1] = system: fall armyworm (Spodoptera frugiperda); assay: Test B: control of fall armyworm on corn (maize) plant, foliar spray; conditions: sprayed at 50 ppm
Experimental: (§1) Test compounds were formulated using a solution containing 10% acetone, 90% water and 300 ppm X-77™ Spreader Lo-Foam Formula non-ionic surfactant containing alkylarylpolyoxyethylene, free fatty acids, glycols and isopropanol (Loveland Industries, Inc. Greeley, Colo., USA). The formulated compounds were applied in 1 mL of liquid through a SUJ2 atomizer nozzle with ⅛ JJ custom body (Spraying Systems Co. Wheaton, Ill., USA) positioned 1.27 cm (0.5 inches) above the top of each test unit. All experimental compounds in these tests were sprayed at 50 ppm, and the test was replicated three times. After spraying of the formulated test compound, each test unit was allowed to dry for 1 h and then a black, screened cap was placed on top. The test units were held for 6 days in a growth chamber at 25° C. and 70% relative humidity. Plant feeding damage was then visually assessed based on foliage consumed, and a pest mortality rating was also counted and calculated for each test unit.
For evaluating control of fall armyworm (Spodoptera frugiperda) the test unit consisted of a small open container with a 4-5-day-old corn (maize) plant inside. This was pre-infested (using a core sampler) with 10-15 1-day-old larvae on a piece of insect diet. Test compounds were formulated and sprayed at 50 ppm as described for Test A and replicated three times. After spraying, the test units were maintained in a growth chamber and then the control efficacy was rated for each test unit as described for Test A.

[2] = system: diamondback moth (Plutella xylostella); assay: Test A: control of diamondback moth on radish plant, foliar spray; conditions: sprayed at 50 ppm, held 6 days
Source text: For evaluating control of diamondback moth (Plutella xylostella) the test unit consisted of a small open container with a 12-14-day-old radish plant inside. This was pre-infested with about 50 neonate larvae that were dispensed into the test unit via corncob grits using a bazooka inoculator. The larvae moved onto the test plant after being dispensed into the test unit.
as §1

[3] = system: western flower thrips (Frankliniella occidentalis); assay: Test E: control of western flower thrips on Soleil bean plant, contact and/or systemic; conditions: held 6 days
Experimental: as §1
For evaluating control of the western flower thrips (Frankliniella occidentalis) through contact and/or systemic means, the test unit consisted of a small open container with a 5-7-day-old Soleil Bean plant inside. Test compounds were formulated and sprayed as described for Test A. All experimental compounds in these tests were sprayed at 250 or 50 ppm as noted, and the test was replicated three times. After spraying, the test units were allowed to dry for 1 h, 22-27 adult thrips were added to each unit and then a black, screened cap was placed on top. The test units were held for 6 days at 25° C. and 45-55% relative humidity. A mortality rating was assessed along with a plant damage rating for each test unit.

Measured: levels of control efficacy (20% or less feeding damage or 80% or more mortality)

CSCC(C)NC(=O)c1ccc(C2=NOC(c3cc(Cl)cc(Cl)c3)(C(F)(F)F)C2)c2ccccc12 (mixture of isomers) [Compound 29]
very good to excellent: [1] | [2] | [3]; sprayed at 50 ppm | [3]; sprayed at 250 ppm

CC(CO)NC(=O)c1ccc(C2=NOC(c3cc(Cl)cc(Cl)c3)(C(F)(F)F)C2)c2ccccc12 (mixture of isomers) [Compound 31]
very good to excellent: [1] | [2] | [3]; sprayed at 50 ppm | [3]; sprayed at 250 ppm

CC(C)NC(=O)C(C)NC(=O)c1ccc(C2=NOC(c3cc(Cl)cc(Cl)c3)(C(F)(F)F)C2)c2ccccc12 (mixture of isomers) [Compound 33]
very good to excellent: [1] | [2] | [3]; sprayed at 50 ppm | [3]; sprayed at 250 ppm

CC(O)CNC(=O)c1ccc(C2=NOC(c3cccc(C(F)(F)F)c3)(C(F)(F)F)C2)c2ccccc12 (mixture of isomers) [Compound 36]
very good to excellent: [1] | [2] | [3]; sprayed at 250 ppm

CC(CO)NC(=O)c1ccc(C2=NOC(c3cccc(C(F)(F)F)c3)(C(F)(F)F)C2)c2ccccc12 (mixture of isomers) [Compound 41]
very good to excellent: [1] | [2] | [3]; sprayed at 50 ppm | [3]; sprayed at 250 ppm

COCC(C)NC(=O)c1ccc(C2=NOC(c3cccc(C(F)(F)F)c3)(C(F)(F)F)C2)c2ccccc12 (mixture of isomers) [Compound 47]
very good to excellent: [1] | [2] | [3]; sprayed at 50 ppm | [3]; sprayed at 250 ppm

CSCC(C)NC(=O)c1ccc(C2=NOC(c3cc(C(F)(F)F)cc(C(F)(F)F)c3)(C(F)(F)F)C2)c2ccccc12 (mixture of isomers) [Compound 59]
very good to excellent: [1] | [2] | [3]; sprayed at 50 ppm | [3]; sprayed at 250 ppm

CSCC(C)NC(=O)c1ccc(C2=NOC(c3cc(C(F)(F)F)cc(C(F)(F)F)c3)(C(F)(F)F)C2)c2ccccc12 (mixture of isomers) [Compound 60]
very good to excellent: [1] | [2] | [3]; sprayed at 250 ppm

CC(C)NC(=O)C(C)NC(=O)c1ccc(C2=NOC(c3cc(C(F)(F)F)cc(C(F)(F)F)c3)(C(F)(F)F)C2)c2ccccc12 (mixture of isomers) [Compound 83]
very good to excellent: [1] | [2] | [3]; sprayed at 50 ppm | [3]; sprayed at 250 ppm

CC(C)CNC(=O)C(C)NC(=O)c1ccc(C2=NOC(c3cc(C(F)(F)F)cc(C(F)(F)F)c3)(C(F)(F)F)C2)c2ccccc12 (mixture of isomers) [Compound 93]
very good to excellent: [1] | [2] | [3]; sprayed at 50 ppm

CCNC(=O)C(C)NC(=O)c1ccc(C2=NOC(c3cc(C(F)(F)F)cc(C(F)(F)F)c3)(C(F)(F)F)C2)c2ccccc12 (mixture of isomers) [Compound 96]
very good to excellent: [1] | [2] | [3]; sprayed at 250 ppm

CC(NC(=O)CNC(=O)c1ccc(C2=NOC(c3cc(Cl)cc(Cl)c3)(C(F)(F)F)C2)c2ccccc12)C(F)(F)F (mixture of isomers) [Compound 122]
very good to excellent: [1] | [2] | [3]; sprayed at 50 ppm | [3]; sprayed at 250 ppm

CC(NC(=O)c1ccc(C2=NOC(c3cc(Cl)cc(Cl)c3)(C(F)(F)F)C2)c2ccccc12)C(=O)NC(C)C(F)(F)F (mixture of isomers) [Compound 123]
very good to excellent: [1] | [2] | [3]; sprayed at 50 ppm | [3]; sprayed at 250 ppm

CC(NC(=O)c1ccc(C2=NOC(c3cc(C(F)(F)F)cc(C(F)(F)F)c3)(C(F)(F)F)C2)c2ccccc12)C(=O)NCC(C)(C)C (mixture of isomers) [Compound 124]
very good to excellent: [1] | [2] | [3]; sprayed at 250 ppm

C[S+]([O-])CCNC(=O)c1ccc(C2=NOC(c3cc(F)cc(C(F)(F)F)c3)(C(F)(F)F)C2)c2ccccc12 (mixture of isomers) [Compound 133]
very good to excellent: [1] | [2] | [3]; sprayed at 50 ppm | [3]; sprayed at 250 ppm

CCNC(=O)C(C)NC(=O)c1ccc(C2=NOC(c3cc(F)cc(C(F)(F)F)c3)(C(F)(F)F)C2)c2ccccc12 (mixture of isomers) [Compound 137]
very good to excellent: [1] | [2] | [3]; sprayed at 50 ppm

CNC(=O)C(C)NC(=O)c1ccc(C2=NOC(c3cc(F)cc(C(F)(F)F)c3)(C(F)(F)F)C2)c2ccccc12 (mixture of isomers) [Compound 138]
very good to excellent: [1] | [2] | [3]; sprayed at 50 ppm
